The record followed here is patent publication US6723567B1, “Screening method for apoptosis and necrosis” (Aponetics Ltd., priority 1998, dated 2004).

Entries after “also recorded” stand apart in the source; their conditions may differ. Numbered stars: 1 amine (or outer) side, 2 acyl side, 3 side chain; on linkers, the order of the positions; unused ones are H or OH. Bridge positions count the residues as written; N and C are the ends. Square brackets hold non-standard residues; d marks the D form. Peptide text beside a SMILES is read from it. I, II: the chains in the order shown. Actinocin(9to1) = Cc1c2oc3c(C)ccc(C(=O)[*:1])c3nc-2c(C(=O)[*:2])c(N)c1=O; NMeV = CN[C@H](C(=O)O)C(C)C; Sar = CNCC(=O)O

For one assay, the system named is A20GFP. Briefly: ActD/CHX interference with the GFP apoptosis assay in A20GFP. Format: cell-based, murine. To be noted: for inhibition of sFasL SN induced apoptosis: 5 μg/ml ActD and/or 10 μg/ml CHX with 100 μl sFasL SN, 10 hours; for fluorescence intensity / fluorescing capacity of A20GFP: 5 μg/ml ActD and/or 10 μg/ml CHX, 10 hours at 37° C. Here is the method: To find out whether the fluorescence of A20GFP and the GFP apoptosis assay as described in example 7 is dependent on the de novo transcription and protein synthesis, Act D (pharmacy of the University Hospital, Basel), a RNA synthesis inhibitor, and Cycloheximide (Sigma), a protein synthesis inhibitor, were tested in our experimental protocol. After washing A20GFP cells with PBS, 250000 cells were aliquoted in FACS-tubes and incubated with:
a) Tube 1 (control): 500 μl medium complete (MC)
b) Tube 2: 100 μl sFasL SN and 400 μl MC
c) Tube 3: 500 μl MC and 5 μg/ml ActD
d) Tube 4: 400 μl MC, 100 μl sFasL SN, 5 μg/ml ActD
e) Tube 5: 500 μl MC and 10 μg/ml CHX
f) Tube 6: 400 μl MC, 100 μl sFasL SN and 10 μg/ml CHX
g) Tube 7: 500 μl MC, 5 μg/ml Act D and 10 μg/ml CHX
h) Tube 8: 400 μl MC, 100 μl sFasL SN, 5 μg/ml Act D and 10 μg/ml CHX
Tubes 1-8 (a-h) were incubated for 10 hours at 37° C. The fluorescing status of the cells was assayed at 10 hours post treatment.

The subject of the next assay is JurkatGFP. Briefly: Apoptosis assay: induction of apoptosis in JurkatGFP by recombinant human TRAIL. Format: cell-based. Here is the method: This apoptosis assay has been performed with recombinant human TRAIL, a known cell death inducer in Jurkat cells. 250,000 JurkatGFP cells were aliquoted in two different FACS-tubes.
Tube 1: (control): cells were incubated with 500 μl RPMI medium,
Tube 2: cells were incubated with 25 μl recombinant human TRAIL and 475 μl RPMI medium.
Both tubes were incubated for 18 hours at 37° C. After incubation the test tubes were immediately measured without prior washing.

`Cc1c2oc3c(C)ccc(C(=O)N[C@@H]4C(=O)N[C@H](C(C)C)C(=O)N5CCC[C@H]5C(=O)N(C)CC(=O)N(C)[C@@H](C(C)C)C(=O)O[C@@H]4C)c3nc-2c(C(=O)N[C@@H]2C(=O)N[C@H](C(C)C)C(=O)N3CCC[C@H]3C(=O)N(C)CC(=O)N(C)[C@@H](C(C)C)C(=O)O[C@@H]2C)c(N)c1=O` [ActD, Actinomycin D] (I: T[dV]P[Sar][NMeV] / II: T[dV]P[Sar][NMeV]; ester I:1-I:C, II:1-II:C; linker I:N-II:N via Actinocin(9to1)): in the assay with A20GFP, the “inhibition of sFasL SN induced apoptosis” value was “nor do they inhibit sFasL SN induced apoptosis” and the “fluorescence intensity / fluorescing capacity of A20GFP” value was “do not substantially interfere with the fluorescing capacity of A20GFP; also recorded: Neither a reduction of GFP-associated fluorescence”.

For `C[C@@H]1C[C@@H]([C@H](O)CC2CC(=O)NC(=O)C2)C(=O)[C@@H](C)C1` [CHX, Cycloheximide], in the assay on A20GFP, the “inhibition of sFasL SN induced apoptosis” value is reported as “nor do they inhibit sFasL SN induced apoptosis” and the “fluorescence intensity / fluorescing capacity of A20GFP” value was “do not substantially interfere with the fluorescing capacity of A20GFP; also recorded: Neither a reduction of GFP-associated fluorescence”.

B1: recombinant human TRAIL: TNF-related apoptosis inducing ligand, a known cell death inducer in Jurkat cells (protein, UniProt P50591 1-281, looked up)
Tumor necrosis factor ligand …: MAMMEVQGGPSLGQTCVLIVIFTVLLQSLCVAVTYVYFTNELKQMQDKYSKSGIACFLKEDDSYWDPNDEESMNSPCWQVKWQLRQLVRKMILRTSEETISTVQEKQQNISPLVRERGPQRVAAHITGTRGRSNTLSSPNSKNEKALGRKINSWESSRSGHSFLSNLHLRNGELVIHEKGFYYIYSQTYFRFQEEIKENTKNDKQMVQYIYKYTSYPDPILLMKSARNSCWSKDAEYGLYSIYQGGIFELKENDRIFVSVTNEHLIDMDHEASFFGAFLVG
Consider B1, for which, in the assay on JurkatGFP (25 μl recombinant human TRAIL in 500 μl, 18 hours at 37° C.), the “induction of apoptosis in JurkatGFP” value was “induced apoptosis in JurkatGFP cells”. Also, in the assay on JurkatGFP (data not shown), the “dose dependence of apoptosis induction in JurkatGFP” value is listed as “dose dependent manner”.
